Laboratory results taken from ChEMBL document CHEMBL3232981, “Isolation of 6-deoxytetrodotoxin from the pufferfish, Takifugu pardalis, and a comparison of the effects of the C-6 and C-11 hydroxy groups of tetrodotoxin on its activity” (J Nat Prod, 2014).

Legend:
[1] = (§1) Inhibition of Nav in mouse Neuro-2a cells assessed as inhibition of ouabain and veratridine-induced cytotoxicity after 24 hrs by WST-8 assay; type: cell-based
Neuro-2a = assay: as §1; type: cell-based

SMILES	EC50 [1]	inhibition (Neuro-2a)
C[C@H]1[C@H]2O[C@@]3(O)O[C@@H]1[C@@H]1[C@@H](O)NC(=N)N[C@]1([C@@H]2O)[C@@H]3O	400 nM	Dose-dependent effect
C[C@]1(O)[C@@H]2O[C@]3(O)O[C@H]1[C@@H](O)[C@@]1(NC(=N)N[C@H](O)[C@@H]21)[C@@H]3O	130 nM	Dose-dependent effect
N=C1N[C@H](O)[C@H]2[C@H]3O[C@]4(O)O[C@H]([C@@H]3CO)[C@@H](O)[C@@]2(N1)[C@@H]4O	6.5 nM	Dose-dependent effect
NC1=N[C@H](O)[C@H]2[C@H]3O[C@]4(O)O[C@@H]([C@@H](O)[C@@]2(N1)[C@@H]4O)[C@]3(O)CO [TETRODOTOXIN]	2.1 nM	Dose-dependent effect
